Tests used:
Type in all cases: biochemical
JAK3 = molecular target: T1, JAK3 (Homo sapiens, UniProt P52333); experiment: JAK3 enzyme inhibition test (LANCE method); details: 1 μM test compound; for inhibition at 1 µM: read-out: JAK3 enzyme inhibitory activity (%, 1 μM)
T1 construct: purchased Invitrogen
T1 sequence (P52333 1-1124): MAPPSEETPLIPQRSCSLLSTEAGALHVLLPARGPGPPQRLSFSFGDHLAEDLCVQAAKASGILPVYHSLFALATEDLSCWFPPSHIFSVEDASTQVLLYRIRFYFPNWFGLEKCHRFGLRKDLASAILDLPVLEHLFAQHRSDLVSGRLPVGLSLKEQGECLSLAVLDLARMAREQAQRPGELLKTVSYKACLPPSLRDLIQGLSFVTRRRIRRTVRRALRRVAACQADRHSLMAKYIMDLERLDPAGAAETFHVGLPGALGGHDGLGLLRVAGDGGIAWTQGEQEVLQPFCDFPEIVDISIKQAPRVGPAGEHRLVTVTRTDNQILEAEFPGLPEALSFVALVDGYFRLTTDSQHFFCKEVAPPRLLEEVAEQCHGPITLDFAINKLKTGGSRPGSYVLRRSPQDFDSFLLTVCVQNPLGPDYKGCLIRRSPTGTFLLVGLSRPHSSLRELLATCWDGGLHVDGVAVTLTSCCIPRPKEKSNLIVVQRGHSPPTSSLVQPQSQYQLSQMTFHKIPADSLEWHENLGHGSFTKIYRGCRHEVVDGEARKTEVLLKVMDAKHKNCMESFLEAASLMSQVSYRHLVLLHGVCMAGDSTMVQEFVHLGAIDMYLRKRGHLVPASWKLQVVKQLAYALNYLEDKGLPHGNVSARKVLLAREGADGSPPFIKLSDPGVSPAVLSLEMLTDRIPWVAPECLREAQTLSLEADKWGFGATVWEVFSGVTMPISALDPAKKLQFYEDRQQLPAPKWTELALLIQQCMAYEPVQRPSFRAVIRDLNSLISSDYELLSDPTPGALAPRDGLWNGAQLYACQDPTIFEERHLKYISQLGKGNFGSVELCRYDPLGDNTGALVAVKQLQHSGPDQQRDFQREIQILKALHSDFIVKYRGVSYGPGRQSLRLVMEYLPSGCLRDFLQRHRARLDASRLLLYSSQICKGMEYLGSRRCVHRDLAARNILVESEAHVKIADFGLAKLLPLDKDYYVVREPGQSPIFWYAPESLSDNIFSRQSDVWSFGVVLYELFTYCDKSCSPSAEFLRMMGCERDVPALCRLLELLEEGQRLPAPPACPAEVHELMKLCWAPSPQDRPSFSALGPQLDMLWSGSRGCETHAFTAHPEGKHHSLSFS
In short: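 TR-FRET (LANCE) read: 1 h room-temperature reaction, EDTA quench, Eu-anti-phosphotyrosine antibody, emission 665 nm after 340 nm excitation. Added solutions held 12 ng/mL JAK3, 300 nM ULight-JAK1 substrate and 15 μM ATP (pH 7.5 HEPES). Activity expressed against no-enzyme wells defined as full inhibition.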

JAK1 = molecular target: T2, JAK1 (Homo sapiens, UniProt P23458); experiment: JAK1 enzyme inhibition test (LANCE method); details: 1 μM test compound; for inhibition at 1 µM: read-out: JAK1 enzyme inhibitory activity (%, 1 μM)
T2 construct: purchased Invitrogen
In short: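 Inhibition expressed against no-enzyme wells (100% inhibition), from time-resolved fluorescence at 665 nm after Eu-anti-phosphotyrosine antibody/EDTA detection. Kinase reaction ran 1 h at room temperature, pH 7.5 HEPES buffer, ULight-JAK1 substrate and ATP diluted to 300 nM and 150 μM before addition.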

JAK2 = molecular target: T3, JAK2 (Homo sapiens, UniProt O60674); experiment: JAK2 enzyme inhibition test (LANCE method); details: 1 μM test compound; for inhibition at 1 µM: read-out: JAK2 enzyme inhibitory activity (%, 1 μM)
T3 construct: purchased Invitrogen
In short: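 TR-FRET (LANCE) read-out, ex 340/em 665 nm with 100 μs delay, after 1 hr room-temperature detection with europium anti-phosphotyrosine antibody and 20 mM EDTA. The preceding 1 hr kinase reaction combined JAK2, ULight-JAK1 substrate and ATP, added as 6 ng/mL, 300 nM and 45 μM solutions; enzyme-free wells defined 100% inhibition.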

TYK2 = molecular target: T4, TYK2 (Homo sapiens, UniProt P29597); experiment: TYK2 enzyme inhibition test (LANCE method); details: 1 μM test compound; for inhibition at 1 µM: read-out: TYK2 enzyme inhibitory activity (%, 1 μM)
T4 construct: purchased Invitrogen
In short: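 TR-FRET (LANCE) readout: after 1 h room-temperature kinase reaction, EDTA plus 4 nM Eu-labelled anti-phosphotyrosine antibody added, signal at 665 nm (340 nm excitation). Reaction combined TYK2, ULight-JAK1 substrate and ATP, prepared at 375 ng/mL, 300 nM and 30 μM before addition, in pH 7.5 HEPES/MgCl2 buffer; enzyme-free wells define full inhibition.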

T4 sequence (P29597 whole entry): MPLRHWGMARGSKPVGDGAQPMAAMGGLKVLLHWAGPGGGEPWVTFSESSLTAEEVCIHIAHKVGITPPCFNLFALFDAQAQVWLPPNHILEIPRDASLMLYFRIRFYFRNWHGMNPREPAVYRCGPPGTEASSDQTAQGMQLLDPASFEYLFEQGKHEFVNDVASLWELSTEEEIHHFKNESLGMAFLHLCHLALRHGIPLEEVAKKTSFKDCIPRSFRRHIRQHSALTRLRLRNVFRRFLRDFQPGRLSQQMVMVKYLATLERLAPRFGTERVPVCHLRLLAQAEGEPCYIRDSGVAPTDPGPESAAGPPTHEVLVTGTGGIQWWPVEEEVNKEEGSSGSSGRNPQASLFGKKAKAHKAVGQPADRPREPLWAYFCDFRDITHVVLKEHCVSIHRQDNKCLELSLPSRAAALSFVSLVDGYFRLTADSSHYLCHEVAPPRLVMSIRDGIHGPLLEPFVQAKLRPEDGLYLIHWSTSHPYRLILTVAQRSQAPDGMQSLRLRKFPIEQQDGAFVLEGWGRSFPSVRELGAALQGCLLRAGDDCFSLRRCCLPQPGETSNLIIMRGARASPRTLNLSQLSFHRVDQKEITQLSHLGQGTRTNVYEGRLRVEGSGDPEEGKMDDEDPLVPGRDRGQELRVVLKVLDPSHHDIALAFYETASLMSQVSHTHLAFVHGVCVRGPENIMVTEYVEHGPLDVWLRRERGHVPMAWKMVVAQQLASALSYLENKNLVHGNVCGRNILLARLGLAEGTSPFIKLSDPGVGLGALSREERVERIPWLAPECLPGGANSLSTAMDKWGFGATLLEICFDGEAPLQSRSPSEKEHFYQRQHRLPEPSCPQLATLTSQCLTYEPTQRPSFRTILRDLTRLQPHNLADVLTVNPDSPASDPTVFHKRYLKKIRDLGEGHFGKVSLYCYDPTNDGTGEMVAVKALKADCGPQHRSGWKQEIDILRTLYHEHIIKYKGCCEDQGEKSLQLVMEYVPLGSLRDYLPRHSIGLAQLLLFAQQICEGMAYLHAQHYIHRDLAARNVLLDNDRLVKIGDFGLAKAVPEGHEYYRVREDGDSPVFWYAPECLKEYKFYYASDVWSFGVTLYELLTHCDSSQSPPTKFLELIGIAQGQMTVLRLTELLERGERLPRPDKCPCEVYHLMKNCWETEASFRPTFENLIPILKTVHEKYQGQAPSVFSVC
T3 sequence (O60674 whole entry): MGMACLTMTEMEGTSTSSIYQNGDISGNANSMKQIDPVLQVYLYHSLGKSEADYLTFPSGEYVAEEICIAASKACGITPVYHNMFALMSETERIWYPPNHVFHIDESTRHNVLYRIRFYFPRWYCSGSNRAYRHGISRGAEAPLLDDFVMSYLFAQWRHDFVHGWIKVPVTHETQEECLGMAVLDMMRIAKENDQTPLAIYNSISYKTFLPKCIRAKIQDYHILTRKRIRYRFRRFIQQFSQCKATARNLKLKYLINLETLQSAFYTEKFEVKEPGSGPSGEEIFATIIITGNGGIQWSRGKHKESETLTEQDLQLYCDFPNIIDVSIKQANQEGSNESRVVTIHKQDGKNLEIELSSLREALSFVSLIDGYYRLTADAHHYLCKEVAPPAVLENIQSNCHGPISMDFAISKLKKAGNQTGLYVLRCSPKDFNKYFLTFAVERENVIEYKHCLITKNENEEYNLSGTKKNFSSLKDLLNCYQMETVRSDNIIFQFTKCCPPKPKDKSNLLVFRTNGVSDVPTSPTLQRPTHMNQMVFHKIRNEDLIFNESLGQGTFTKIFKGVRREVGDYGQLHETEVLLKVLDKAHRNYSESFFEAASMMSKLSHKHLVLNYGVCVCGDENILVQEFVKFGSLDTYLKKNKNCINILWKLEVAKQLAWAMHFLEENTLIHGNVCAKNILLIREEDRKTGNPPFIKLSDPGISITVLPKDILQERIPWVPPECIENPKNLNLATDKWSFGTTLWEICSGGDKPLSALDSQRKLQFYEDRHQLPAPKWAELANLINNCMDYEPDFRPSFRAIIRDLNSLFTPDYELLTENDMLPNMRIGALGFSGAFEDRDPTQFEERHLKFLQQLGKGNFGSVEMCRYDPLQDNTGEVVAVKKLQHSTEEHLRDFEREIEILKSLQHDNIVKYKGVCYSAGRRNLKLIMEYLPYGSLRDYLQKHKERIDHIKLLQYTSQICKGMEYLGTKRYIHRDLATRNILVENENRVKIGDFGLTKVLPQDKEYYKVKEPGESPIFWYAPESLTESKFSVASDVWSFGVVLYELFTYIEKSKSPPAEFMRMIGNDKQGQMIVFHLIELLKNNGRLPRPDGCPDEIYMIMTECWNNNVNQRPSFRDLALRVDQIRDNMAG
T2 sequence (P23458 whole entry): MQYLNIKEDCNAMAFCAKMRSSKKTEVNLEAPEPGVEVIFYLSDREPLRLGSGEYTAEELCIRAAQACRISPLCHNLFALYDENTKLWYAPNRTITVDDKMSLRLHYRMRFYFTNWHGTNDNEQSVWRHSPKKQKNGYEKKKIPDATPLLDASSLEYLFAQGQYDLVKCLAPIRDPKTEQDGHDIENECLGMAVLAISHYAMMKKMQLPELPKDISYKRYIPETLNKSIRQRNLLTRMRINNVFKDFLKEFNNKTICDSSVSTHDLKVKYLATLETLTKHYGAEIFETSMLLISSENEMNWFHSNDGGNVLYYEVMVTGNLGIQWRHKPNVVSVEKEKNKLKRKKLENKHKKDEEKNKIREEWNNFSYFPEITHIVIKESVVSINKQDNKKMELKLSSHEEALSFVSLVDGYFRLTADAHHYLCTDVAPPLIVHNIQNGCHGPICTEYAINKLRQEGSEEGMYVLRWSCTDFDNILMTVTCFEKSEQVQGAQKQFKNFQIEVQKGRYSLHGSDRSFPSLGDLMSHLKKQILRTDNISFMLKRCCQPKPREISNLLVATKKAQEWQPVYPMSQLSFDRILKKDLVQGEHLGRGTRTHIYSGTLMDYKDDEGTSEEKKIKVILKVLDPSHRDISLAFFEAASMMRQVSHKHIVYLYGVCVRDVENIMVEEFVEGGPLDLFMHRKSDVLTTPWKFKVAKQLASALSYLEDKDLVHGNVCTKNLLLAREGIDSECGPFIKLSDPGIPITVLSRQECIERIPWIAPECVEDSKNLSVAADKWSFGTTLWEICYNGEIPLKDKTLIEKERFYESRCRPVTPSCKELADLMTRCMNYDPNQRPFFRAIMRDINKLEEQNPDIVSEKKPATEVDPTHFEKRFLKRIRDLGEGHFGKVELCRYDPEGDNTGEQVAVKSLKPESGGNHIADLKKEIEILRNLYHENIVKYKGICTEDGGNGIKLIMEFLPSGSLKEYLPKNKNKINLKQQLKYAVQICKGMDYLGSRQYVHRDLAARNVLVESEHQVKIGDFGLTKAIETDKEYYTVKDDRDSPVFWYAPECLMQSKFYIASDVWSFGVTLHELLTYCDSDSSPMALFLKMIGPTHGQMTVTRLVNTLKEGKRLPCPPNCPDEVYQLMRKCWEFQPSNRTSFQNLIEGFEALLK

Row | SMILES | inhibition at 1 µM (JAK3) [%] | inhibition at 1 µM (JAK2) [%] | inhibition at 1 µM (TYK2) [%] | inhibition at 1 µM (JAK1) [%] | other results
1 | Cn1nc(-c2cn(C3CCCC3(C)C)c(=O)c3c(N)n[nH]c23)cc1CN1CCS(=O)(=O)CC1 (stereo not drawn) [Example 74, 3-amino-5-(2,2-dimethylcyclopentyl)-7-(5-((1,1-dioxidothiomorpholin-4-yl)methyl)-1-methyl-1H-pyrazol-3-yl)-1,5-dihydro-4H-pyrazolo[4,3-c]pyridin-4-one] | 99 | 100 | 99 |  | JAK1 enzyme inhibitory activity (%, 1 μM) (JAK1; 1 µM): 98%
2 | Cn1nc(-c2cn(C3CCCC3(C)C)c(=O)c3c(N)n[nH]c23)cc1CN1CCS(=O)(=O)CC1 (stereo not drawn) [Example 75, 3-amino-5-(2,2-dimethylcyclopentyl)-7-(5-((1,1-dioxidothiomorpholin-4-yl)methyl)-1-methyl-1H-pyrazol-3-yl)-1,5-dihydro-4H-pyrazolo[4,3-c]pyridin-4-one] |  |  |  |  | JAK3 enzyme inhibitory activity (%, 1 μM) (JAK3; 1 µM): 93%; JAK1 enzyme inhibitory activity (%, 1 μM) (JAK1; 1 µM): 66%; JAK2 enzyme inhibitory activity (%, 1 μM) (JAK2; 1 µM): 87%; TYK2 enzyme inhibitory activity (%, 1 μM) (TYK2; 1 µM): 92%
3 | Cn1nc(-c2cn(C3CCCC3(C)C)c(=O)c3c(N)n[nH]c23)cc1N1CCOCC1 (stereo not drawn) [Example 76, 3-amino-5-(2,2-dimethylcyclopentyl)-7-(1-methyl-5-(morpholin-4-yl)-1H-pyrazol-3-yl)-1,5-dihydro-4H-pyrazolo[4,3-c]pyridin-4-one] | 100 | 99 | 100 | 99 | 
4 | Cn1nc(-c2cn(C3CCCC3(C)C)c(=O)c3c(N)n[nH]c23)cc1N1CCOCC1 (stereo not drawn) [Example 77, 3-amino-5-(2,2-dimethylcyclopentyl)-7-(1-methyl-5-(morpholin-4-yl)-1H-pyrazol-3-yl)-1,5-dihydro-4H-pyrazolo[4,3-c]pyridin-4-one] |  |  |  |  | JAK3 enzyme inhibitory activity (%, 1 μM) (JAK3; 1 µM): 90%; JAK1 enzyme inhibitory activity (%, 1 μM) (JAK1; 1 µM): 79%; JAK2 enzyme inhibitory activity (%, 1 μM) (JAK2; 1 µM): 84%; TYK2 enzyme inhibitory activity (%, 1 μM) (TYK2; 1 µM): 96%
5 | Cn1nc(-c2cn(C(C3CC3)C3CC3)c(=O)c3c(N)n[nH]c23)cc1N1CCS(=O)(=O)CC1 [Example 78, 3-amino-5-(dicyclopropylmethyl)-7-(5-(1,1-dioxidothiomorpholin-4-yl)-1-methyl-1H-pyrazol-3-yl)-1,5-dihydro-4H-pyrazolo[4,3-c]pyridin-4-one] | 100 | 99 | 99 | 98 | 
6 | Cn1nc(-c2cn(C(C3CC3)C3CC3)c(=O)c3c(N)n[nH]c23)cc1N1CCOCC1 [Example 79, 3-amino-5-(dicyclopropylmethyl)-7-(1-methyl-5-(morpholin-4-yl)-1H-pyrazol-3-yl)-1,5-dihydro-4H-pyrazolo[4,3-c]pyridin-4-one] | 100 | 99 | 99 | 99 | 
7 | CC(C)C(C(F)F)n1cc(-c2cc(N3CCOCC3)n(C)n2)c2[nH]nc(N)c2c1=O (stereo not drawn) [Example 80, 3-amino-5-(1,1-difluoro-3-methylbutan-2-yl)-7-(1-methyl-5-(morpholin-4-yl)-1H-pyrazol-3-yl)-1,5-dihydro-4H-pyrazolo[4,3-c]pyridin-4-one] | 98 | 91 | 99 | 89 | 
8 | CC(n1cc(-c2cc(N3CCOCC3)n(C)n2)c2[nH]nc(N)c2c1=O)C1(C)CC1 (stereo not drawn) [Example 81, 3-amino-5-(1-(1-methylcyclopropyl)ethyl)-7-(1-methyl-5-(morpholin-4-yl)-1H-pyrazol-3-yl)-1,5-dihydro-4H-pyrazolo[4,3-c]pyridin-4-one] | 100 | 100 | 99 | 99 | 
9 | CC(C)C(n1cc(-c2cc(N3CCOCC3)n(C)n2)c2[nH]nc(N)c2c1=O)C(F)(F)F (stereo not drawn) [Example 82, 3-amino-7-(1-methyl-5-(morpholin-4-yl)-1H-pyrazol-3-yl)-5-(1,1,1-trifluoro-3-methylbutan-2-yl)-1,5-dihydro-4H-pyrazolo[4,3-c]pyridin-4-one] | 97 | 87 | 99 | 89 | 
10 | CC(C)[C@H](C)n1cc(-c2cc(C(C)(C)O)n(C)n2)c2[nH]nc(N)c2c1=O.Cl [Example 86, 3-amino-7-(5-(2-hydroxypropan-2-yl)-1-methyl-1H-pyrazol-3-yl)-5-((2S)-3-methylbutan-2-yl)-1,5-dihydro-4H-pyrazolo[4,3-c]pyridin-4-one hydrochloride] |  |  |  |  | JAK3 enzyme inhibitory activity (%, 1 μM) (JAK3): 99%; JAK1 enzyme inhibitory activity (%, 1 μM) (JAK1): 98%; JAK2 enzyme inhibitory activity (%, 1 μM) (JAK2): 98%; TYK2 enzyme inhibitory activity (%, 1 μM) (TYK2): 100%

More lines, main results first:

Row | inhibition at 1 µM (JAK3) [%] | inhibition at 1 µM (JAK2) [%] | inhibition at 1 µM (TYK2) [%] | inhibition at 1 µM (JAK1) [%] | SMILES | other results
11 | 100 | 100 | 100 | 99 | Cn1nc(-c2cn(C(C3CC3)C(F)(F)F)c(=O)c3c(N)n[nH]c23)cc1N1CCOCC1 (stereo not drawn) [Example 83, 3-amino-5-(1-cyclopropyl-2,2,2-trifluoroethyl)-7-(1-methyl-5-(morpholin-4-yl)-1H-pyrazol-3-yl)-1,5-dihydro-4H-pyrazolo[4,3-c]pyridin-4-one] | 
12 | 97 | 87 | 83 | 84 | CCOC(=O)C(C(C)C)n1cc(-c2cc(N3CCOCC3)n(C)n2)c2[nH]nc(N)c2c1=O (stereo not drawn) [Example 84, ethyl 2-(3-amino-7-(1-methyl-5-(morpholin-4-yl)-1H-pyrazol-3-yl)-4-oxo-1,4-dihydro-5H-pyrazolo[4,3-c]pyridin-5-yl)-3-methylbutanoate] | 
13 | 89 | 86 | 89 | 68 | CC(C)C(C(N)=O)n1cc(-c2cc(N3CCOCC3)n(C)n2)c2[nH]nc(N)c2c1=O (stereo not drawn) [Example 85, 2-(3-amino-7-(1-methyl-5-(morpholin-4-yl)-1H-pyrazol-3-yl)-4-oxo-1,4-dihydro-5H-pyrazolo[4,3-c]pyridin-5-yl)-3-methylbutanamide] | 
14 | 99 | 100 | 99 | 99 | Cn1nc(-c2cn(C(C3CC3)C3CC3)c(=O)c3c(N)n[nH]c23)cc1N1CCS(=O)(=O)C(C)(C)C1 [Example 88, 3-amino-5-(dicyclopropylmethyl)-7-(5-(2,2-dimethyl-1,1-dioxidothiomorpholin-4-yl)-1-methyl-1H-pyrazol-3-yl)-1,5-dihydro-4H-pyrazolo[4,3-c]pyridin-4-one] | 
15 | 99 | 99 | 100 | 97 | COC1(c2cc(-c3cn(C(C4CC4)C4CC4)c(=O)c4c(N)n[nH]c34)nn2C)CN(C(=O)C(C)C)C1 [Example 89, 3-amino-5-(dicyclopropylmethyl)-7-(5-(1-isobutyryl-3-methoxyazetidin-3-yl)-1-methyl-1H-pyrazol-3-yl)-1,5-dihydro-4H-pyrazolo[4,3-c]pyridin-4-one] | 
